Measurements as given in article PMC10533412, “Phosphoantigens glue butyrophilin 3A1 and 2A1 to activate Vγ9Vδ2 T cells” (Nature, 2023).
Values joined by “and” are separate entries in the source; they are usually repeats but may differ in a detail not shown here. Equal entries are not always repeated. Where two headings read alike, the source gives them in different places.

What was measured:
[1] = system: BTN2A−/− MIA PaCa-2 (BTN2A1/BTN2A2 KO) cells; assay: Cell killing assay with BTN2A−/− MIA PaCa-2 (BTN2A1/BTN2A2 KO) cells expressing BTN2A1/BTN2A2 variants; conditions: for Cytotoxicity of Vγ9Vδ2 T cells (percentage of specific lysis): replicates; for EC50: Homo sapiens
Procedure: (§1) MIA PaCa-2 cells were infected with lentivirus bearing luciferase transgene. Luciferase-positive cells were plated at 5.0 × 10^3 cells per well in 384-well plates 1 day before transfection. All plasmids were transfected into BTN2A^−/− MIA PaCa-2 (BTN2A1/BTN2A2 KO) cells using Lipofectamine 2000 reagent. […] Stable-lite luciferase (Vazyme) was added to each well and the luciferase signal was immediately measured by using the PerkinElmer EnVision microplate reader.
(§2) Percentage of lysis was calculated using the following equation: percentage of specific lysis = (maximum luciferase − experimental luciferase)/maximum luciferase × 100.

VpBTN3 BFI = VpBTN3 BFI (Vicugna pacos, UniProt A0A345DF50); assay: ITC: pAg binding to VpBTN3 BFI; design: species or system alpaca (Vicugna pacos); conditions: ITC; read-out: KD, pAg binding to VpBTN3 intracellular domain (BFI)
VpBTN3 BFI, sequence (A0A345DF50 entry or part of it): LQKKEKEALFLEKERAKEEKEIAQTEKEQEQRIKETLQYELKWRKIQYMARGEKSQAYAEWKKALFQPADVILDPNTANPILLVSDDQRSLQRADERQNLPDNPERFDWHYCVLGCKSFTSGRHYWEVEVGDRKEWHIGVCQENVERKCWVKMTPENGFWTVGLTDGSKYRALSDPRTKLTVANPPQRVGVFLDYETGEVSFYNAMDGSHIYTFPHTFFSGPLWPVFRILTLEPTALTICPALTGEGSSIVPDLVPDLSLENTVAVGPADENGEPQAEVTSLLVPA
Procedure: ITC experiments were performed using the MicroCal PEAQ-ITC instrument (GE Healthcare) at 25 °C. We used an initial injection of 0.4 μl followed by 19 injections (2 µl each) at 150 s time intervals. ITC binding fits were calculated using MicroCal Analysis software. The samples were prepared using a buffer (20 mM HEPES pH 7.5, 150 mM NaCl).
ITC experiments of HMBPP, DMAPP or IPP binding to the VpBTN3 BFI (or the preconditioned VpBTN3 BFI and VpBTN2 BFI complex) and VpBTN2 BFI (or VpBTN1 BFI) binding to VpBTN3 BFI in the presence of HMBPP, DMAPP or IPP were performed according to the same procedures as for the BTN3A1 B30.2 and BTN2A1 B30.2.

MIA PaCa-2 cells = assay: Cell killing assay: cytotoxicity of Vγ9Vδ2 T cells towards pAg- or zoledronate-treated MIA PaCa-2 cells (luciferase); format: cell-based, human; conditions: for Bottom (best-fit value) / Top (best-fit value) / Span (best-fit value): Fig. 1b; for Bottom (best-fit value) / Top (best-fit value): log(agonist) vs. response (three parameters); for EC50: Homo sapiens
Procedure: as §1, §2

[2] = Ext. Fig. 6d, cells expressing 2A2 W374R, three-parameter fit
[3] = Ext. Fig. 6d, cells expressing 2A2 WT, three-parameter fit

## C/C(=C\COP(=O)(O)OP(=O)(O)O)CO [Compound 1, (E)-4-hydroxy-3-methylbut-2-en-1-yl diphosphate]
[1]; Ext. Fig. 6d, cells expressing 2A2 W374R/M506T, three-parameter fit
  Top (best-fit value): 48.19
[1]; [2]
  Bottom (best-fit value): 17.13
  Span (best-fit value): 18.41
  Top (best-fit value): 35.54
[1]; [3]
  Bottom (best-fit value): 21.2
  Span (best-fit value): 14.17
  Top (best-fit value): 35.37
[1]; HMBPP log concentration -4, 2A1 WT cells
  Cytotoxicity of Vγ9Vδ2 T cells (percentage of specific lysis): 70.1646% and 71.1001% and 71.513%
[1]; HMBPP log concentration -4, 2A1 ∆C cells
  Cytotoxicity of Vγ9Vδ2 T cells (percentage of specific lysis): 41.112% and 41.0173% and 41.0139%
[1]; HMBPP log concentration -5, 2A1 WT cells
  Cytotoxicity of Vγ9Vδ2 T cells (percentage of specific lysis): 64.2316% and 64.2674% and 65.8786%
[1]; HMBPP log concentration -5, 2A1 ∆C cells
  Cytotoxicity of Vγ9Vδ2 T cells (percentage of specific lysis): 23.0147% and 25.2364% and 24.5941%
[1]; HMBPP log concentration -6, 2A1 WT cells
  Cytotoxicity of Vγ9Vδ2 T cells (percentage of specific lysis): 56.2518% and 58.0065% and 60.1294%
[1]; HMBPP log concentration -6, 2A1 ∆C cells
  Cytotoxicity of Vγ9Vδ2 T cells (percentage of specific lysis): 18.5277% and 22.0034% and 20.9688%
[1]; HMBPP log concentration -7, 2A1 WT cells
  Cytotoxicity of Vγ9Vδ2 T cells (percentage of specific lysis): 48.0249% and 51.1234% and 56.1132%
[1]; HMBPP log concentration -7, 2A1 ∆C cells
  Cytotoxicity of Vγ9Vδ2 T cells (percentage of specific lysis): 26.9403% and 18.9725% and 19.5843%
[1]; HMBPP log concentration -8, 2A1 WT cells
  Cytotoxicity of Vγ9Vδ2 T cells (percentage of specific lysis): 44.2956% and 44.0311% and 51.5761%
[1]; HMBPP log concentration -8, 2A1 ∆C cells
  Cytotoxicity of Vγ9Vδ2 T cells (percentage of specific lysis): 23.996% and 19.5568% and 15.4363%
[1]; HMBPP log concentration -9, 2A1 WT cells
  Cytotoxicity of Vγ9Vδ2 T cells (percentage of specific lysis): 35.2231% and 37.6052% and 42.4431%
[1]; HMBPP log concentration -9, 2A1 ∆C cells
  Cytotoxicity of Vγ9Vδ2 T cells (percentage of specific lysis): 20.428% and 19.6068% and 15.0611%
[1]; HMBPP log concentration -10, 2A1 WT cells
  Cytotoxicity of Vγ9Vδ2 T cells (percentage of specific lysis): 29.643% and 30.0604% and 32.9175%
[1]; HMBPP log concentration -10, 2A1 ∆C cells
  Cytotoxicity of Vγ9Vδ2 T cells (percentage of specific lysis): 15.4573% and 16.0868% and 15.1497%
[1]; HMBPP log concentration -11, 2A1 WT cells
  Cytotoxicity of Vγ9Vδ2 T cells (percentage of specific lysis): 26.3218% and 25.6969% and 24.6851%
[1]; HMBPP log concentration -11, 2A1 ∆C cells
  Cytotoxicity of Vγ9Vδ2 T cells (percentage of specific lysis): 16.8095% and 15.8259% and 16.2096%
[1]; MIA PaCa-2, 144 h, Ext. Fig. 6d, cells expressing 2A1 WT, three-parameter fit
  EC50: 90.3 nM
[1]; MIA PaCa-2, 144 h, Ext. Fig. 6d, cells expressing 2A2 G352Y354QR/M506T/W374R, three-parameter fit
  EC50: 176 nM
[1]; MIA PaCa-2, 144 h, Ext. Fig. 6d, cells expressing 2A2 M506T, three-parameter fit
  EC50: 266 nM
[1]; MIA PaCa-2, 144 h, Ext. Fig. 6d, cells expressing 2A2 W374R/M506T, three-parameter fit
  EC50: 191 nM
[1]; MIA PaCa-2, 144 h, read-out: LogEC50, Ext. Fig. 6d (converted), cells expressing 2A1 WT, log(Concentration)/M, three-parameter fit
  EC50: 90.2 nM
[1]; MIA PaCa-2, 144 h, read-out: LogEC50, Ext. Fig. 6d (converted), cells expressing 2A2 G352Y354QR/M506T/W374R, log(Concentration)/M, three-parameter fit
  EC50: 176 nM
[1]; MIA PaCa-2, 144 h, read-out: LogEC50, Ext. Fig. 6d (converted), cells expressing 2A2 M506T, log(Concentration)/M, three-parameter fit
  EC50: 267 nM
[1]; MIA PaCa-2, 144 h, read-out: LogEC50, Ext. Fig. 6d (converted), cells expressing 2A2 W374R/M506T, log(Concentration)/M, three-parameter fit
  EC50: 191 nM
[1]; MIA PaCa-2, read-out: EC50 (nM), MIA PaCa-2 cell lysis by Vγ9Vδ2 T cells exposed to HMBPP, 2A1 WT
  EC50: 90.3 nM
[1]; MIA PaCa-2, read-out: EC50 (nM), MIA PaCa-2 cell lysis by Vγ9Vδ2 T cells exposed to HMBPP, active chimera bearing G352Y354QR/ M506T/W374R
  EC50: 176 nM
[1]; MIA PaCa-2, read-out: EC50 (nM), MIA PaCa-2 cell lysis by Vγ9Vδ2 T cells exposed to HMBPP, active chimera bearing W374R/M506T
  EC50: 191 nM
[1]; MIA PaCa-2, read-out: EC50 (μM) of Vγ9Vδ2 T cells towards BTN2A−/− MIA PaCa-2 in the presence of HMBPP, NT cells
  EC50: 12800 nM
[1]; MIA PaCa-2, read-out: EC50 (μM) of Vγ9Vδ2 T cells towards BTN2A−/− MIA PaCa-2 in the presence of HMBPP, transfected 2A1 WT
  EC50: 800 nM
[1]; MIA PaCa-2, read-out: EC50 (μM) of Vγ9Vδ2 T cells towards BTN2A−/− MIA PaCa-2 in the presence of HMBPP, transfected 2A1 variant D455G/E457R
  EC50: 61100 nM
[1]; MIA PaCa-2, read-out: EC50 (μM) of Vγ9Vδ2 T cells towards BTN2A−/− MIA PaCa-2 in the presence of HMBPP, transfected 2A1 variant R477A
  EC50: 19700 nM
[1]; MIA PaCa-2, read-out: EC50 (μM) of Vγ9Vδ2 T cells towards BTN2A−/− MIA PaCa-2 in the presence of HMBPP, transfected 2A1 variant T510A
  EC50: 1.17e+06 nM
[1]; MIA PaCa-2, read-out: EC50 (μM) of Vγ9Vδ2 T cells towards BTN2A−/− MIA PaCa-2 in the presence of HMBPP, transfected 2A1 variant T510M
  EC50: 97700 nM
[1]; MIA PaCa-2, read-out: EC50 (μM) of Vγ9Vδ2 T cells towards BTN2A−/− MIA PaCa-2 in the presence of HMBPP, transfected 2A1 variant V511A
  EC50: 130000 nM
[1]; MIA PaCa-2, read-out: EC50 (μM) of Vγ9Vδ2 T cells towards BTN2A−/− MIA PaCa-2 in the presence of HMBPP, transfected 2A1 variant V511D
  EC50: 12500 nM
[1]; MIA PaCa-2, read-out: EC50 (μM) of Vγ9Vδ2 T cells towards BTN2A−/− MIA PaCa-2 in the presence of HMBPP, transfected 2A1 variant V511W
  EC50: 389000 nM
[1]; MIA PaCa-2, read-out: EC50 (μM) of Vγ9Vδ2 T cells towards BTN2A−/− MIA PaCa-2 in the presence of HMBPP, transfected 2A1 variant ΔC
  EC50: 17500 nM
[1]; MIA PaCa-2, read-out: EC50, MIA PaCa-2 lysis, BTN2A−/− MIA PaCa-2 stably expressing BTN2A1 WT
  EC50: 12.9 nM
[1]; MIA PaCa-2, read-out: EC50, best-fit value, 2A1 WT, unit not printed in the sheet (b166 prints […])
  EC50: 12.9 nM
[1]; MIA PaCa-2, read-out: EC50, best-fit value, 2A1 ∆C, unit not printed in the sheet (b166 prints […])
  EC50: 43900 nM
VpBTN3 BFI
  Kd: 1.37 µM
MIA PaCa-2 cells; 2A1 KO cells
  Bottom (best-fit value): 2.135
  Top (best-fit value): 50.59
MIA PaCa-2 cells; 2A1 KO cells, three-parameter fit
  Span (best-fit value): 48.45
MIA PaCa-2 cells; 2A1 WT cells
  Bottom (best-fit value): 19.47
  Top (best-fit value): 76.92
MIA PaCa-2 cells; 2A1 WT cells, three-parameter fit
  Span (best-fit value): 57.45
MIA PaCa-2 cells; MIA PaCa-2, BTN2A1 WT MIA PaCa-2 cells, read-out: EC50 for HMBPP-mediated MIA PaCa-2 cell killing
  EC50: 6.5e-09 M
MIA PaCa-2 cells; MIA PaCa-2, BTN2A1−/− (KO) MIA PaCa-2 cells, read-out: EC50 for HMBPP-mediated MIA PaCa-2 cell killing
  EC50: 3.6e-05 M
MIA PaCa-2 cells; MIA PaCa-2, Fig. 1b, 2A1 KO cells, log(Concentration)/M, three-parameter fit, read-out: LogEC50 (converted)
  EC50: 3.6e-05 M
MIA PaCa-2 cells; MIA PaCa-2, Fig. 1b, 2A1 KO cells, three-parameter fit, read-out: EC50
  EC50: 3.6e-05 M
MIA PaCa-2 cells; MIA PaCa-2, Fig. 1b, 2A1 WT cells, log(Concentration)/M, three-parameter fit, read-out: LogEC50 (converted)
  EC50: 6.5e-09 M
MIA PaCa-2 cells; MIA PaCa-2, Fig. 1b, 2A1 WT cells, three-parameter fit, read-out: EC50
  EC50: 6.5e-09 M
MIA PaCa-2 cells; MIA PaCa-2, Supplementary Table 4, read-out: EC50 (M) for MIA PaCa-2 cell lysis mediated by HMBPP analogs and Vγ9Vδ2 T cells
  EC50: 3.87e-09 M
